Earlier results as cited in US9561272B2, “Compositions and methods for modulating immune responses” (The University of Queensland, priority 2006, dated 2017).

System: NF-κB
Settings: Table 3, miscellaneous inhibitors of NF-κB; step of NF-κB function inhibited, per the cited reference; cited from earlier work

Compound | Effect or point of inhibition
COc1cc([C@@H]2c3cc4c(c(OC)c3[C@H](O)[C@H]3COC(=O)[C@H]23)OCO4)cc(OC)c1O | Transactivation
CC(=O)OC(CC=C(C)C)C(C)=CC(O)CC(C)=CCOc1ccc2ccc(=O)oc2c1 (stereo not shown) | Transactivation
S=C([S-])OC1CC2CC1C1CCCC21.[K+] (stereo not shown) | Transactivation
CCOC(=O)c1cnc(NC2=C(C)C(=O)NC2=O)nc1C(F)(F)F | Transactivation
O=C(C=Cc1ccc(O)cc1)NCCc1c[nH]c2ccc(O)cc12 | DNA binding
CS(=O)(=O)Nc1cc2occ(NC=O)c(=O)c2cc1Oc1ccccc1 | DNA binding
COc1ccc(C=CC(=O)Nc2ccccc2C(=O)O)cc1OC | Transactivation
CC(C)[C@]12O[C@H]1[C@@H]1O[C@]13[C@]1(O[C@H]1C[C@H]1C4=C(CC[C@@]13C)C(=O)OC4)[C@@H]2O | DNA binding
COc1cc(/C=C/C(=O)c2ccc(F)cc2)cc(OC)c1OC [3,4,5-trimethoxy-4′-fluorochalcone] | Transactivation
C=CCNC1=C2C[C@@H](C)C[C@H](OC)[C@H](O)[C@@H](C)/C=C(\C)[C@H](OC(N)=O)[C@@H](OC)/C=C\C=C(/C)C(=O)NC(=CC1=O)C2=O [17-allylamino-17-demethoxygeldanamycin] | Transactivation
CC1(C)C[C@@H]1C(=O)Nc1ccc(Oc2ccc(NC(=O)[C@H]3CC3(C)C)cn2)cc1 [APC0576] | Transactivation
C[C@H]1CCC[C@H](O)CCC/C=C/c2cc(O)cc(O)c2C(=O)O1 [Alpha-zearalenol] | Transactivation
C[n+]1c2n(c(=O)c3ccccc31)CCc1c-2[nH]c2ccccc12 [Dehydroevodiamine] | Transactivation
N[C@@H](Cc1c[nH]cn1)C(=O)O [Histidine] | Transactivation
O=c1cc(N2CCOCC2)oc2c(-c3ccccc3)cccc12 [LY294,002] | Transactivation
O=c1cc(-c2ccc(O)c(O)c2)oc2cc(O)cc(O)c12 [Luteolin] | p65 Transactivation
COc1ccc(-c2cc(=O)c3c(OC)c(OC)c(OC)c(OC)c3o2)cc1OC [Nobiletin] | Transactivation
COc1ccc(C(C)=O)c(O)c1 [Paeonol (from Mountain Cortx)] | Transactivation
S=C=NCCc1ccccc1 [Phenethylisothiocyanate] | Transactivation
CCCCCCCCCCCCC/C=C/[C@@H](O)[C@@H](N)CO[C@@H]1O[C@H](CO)[C@H](O)[C@H](O)[C@H]1O [Psychosine] | Transactivation

Compound | Effect or point of inhibition
Cn1cc(C2=C(c3cn(CCCSC(=N)N)c4ccccc34)C(=O)NC2=O)c2ccccc21 [RO31-8220 (PKC inhibitor)] | Transactivation
O=C(Nc1ncc([N+](=O)[O-])s1)c1ccc([N+](=O)[O-])c(Cl)c1 [SM-7368 (small molecule)] | DNA binding
c1cc2c(cc1[C@H]1OC[C@H]3[C@@H]1CO[C@@H]3c1ccc3c(c1)OCO3)OCO2 [Sesamin (from sesame oil)] | DNA binding
COC1=C[C@@H]2[C@@H]3Cc4ccc(OC)c(O)c4[C@]2(CCN3C)CC1=O [Sinomenine] | DNA binding
O=C(O)c1cc(/N=N/c2ccc(S(=O)(=O)Nc3ccccn3)cc2)ccc1O [Sulfasalazine] | DNA binding
Cc1nc(C)c(C)nc1C [Tetramethylpyrazine] | DNA binding
[SH-].[SH-].[S]=[Mo]=[S] [Tetrathiomolybdate] | Transactivation
O=C1NC(=O)C(Cc2ccc3cc(OCc4ccccc4F)ccc3c2)S1 (stereo not shown) [Thiazolidinedione MCC-555] | DNA binding
CC(/C=C/C(=O)NO)=C\[C@@H](C)C(=O)c1ccc(N(C)C)cc1 [Trichostatin A] | RelA DNA binding
CCCCC/C=C\C/C=C\CCCCCCCC(=O)OCC(COC(=O)CCCCCCC/C=C\C/C=C\CCCCC)OC(=O)CCCCCCC/C=C\C/C=C\CCCCC [Trilinolein] | Transactivation
N#CC(C#N)=Cc1ccc([N+](=O)[O-])c(O)c1 [Tyrphostin AG-126] | DNA binding
C[C@H]1[C@H](C)CC[C@]2(C(=O)O)CC[C@]3(C)C(=CC[C@@H]4[C@@]5(C)CC[C@H](O)C(C)(C)[C@@H]5CC[C@]43C)[C@H]12 [Ursolic acid] | DNA binding
CC1=C(CO)C(=O)O[C@@H]([C@@H](C)[C@H]2CC[C@H]3[C@@H]4C[C@H]5O[C@]56[C@@H](O)C=CC(=O)[C@]6(C)[C@H]4CC[C@]23C)C1 [Withaferin A] | DNA binding
COc1c(O)cc(O)c2c(=O)cc(-c3ccccc3)oc12 [Wogonin (5,7-dihydroxy-8-methoxyflavone)] | DNA binding
COC[C@H]1OC(=O)c2coc3c2[C@@]1(C)C1=C(C3=O)[C@@H]2CCC(=O)[C@@]2(C)C[C@H]1OC(C)=O [Wortmannin (fungal metabolite)] | Transactivation
COc1cc(O)c(CC=C(C)C)c(O)c1C(=O)/C=C/c1ccc(O)cc1 [Xanthohumol (a hops prenylflavonoid)] | DNA binding
OC[C@@H](O)[C@H](O)[C@@H](O)CO [Xylitol] | DNA binding
Artemisolide | Transactivation
Siva-1 | DNA binding
Tom1 (target of Myb-1) overexpression | DNA binding

Same assay, conditions: cited from earlier work

Compound | Effect or point of inhibition
CCCCCCCCCCCCCC(=O)OCC/C(SS/C(CCOC(=O)CCCCCCCCCCCCC)=C(\C)N(C=O)Cc1cnc(C)nc1N)=C(/C)N(C=O)Cc1cnc(C)nc1N | Nuclear translocation
C=C(C)[C@@H]1CC[C@]2(C(=O)O[C@@H]3O[C@H](CO[C@@H]4O[C@H](CO)[C@@H](O[C@@H]5O[C@@H](C)[C@H](O)[C@@H](O)[C@H]5O)[C@H](O)[C@H]4O)[C@@H](O)[C@H](O)[C@H]3O)CC[C@]3(C)[C@H](C[C@H]4OC(=O)C[C@@H](O)[C@]5(C)[C@@H]4[C@@]3(C)CC[C@H]5C(=C)C)[C@@H]12 [Chiisanoside] | RelA Nuclear translocation
Oc1ccc(O)cc1 [Hydroquinone (HQ)] | DNA binding
N[C@@H](CCC(=O)N[C@@H](CSN=O)C(=O)NCC(=O)O)C(=O)O [Nitrosoglutathione] | DNA binding
C[S+]([O-])c1ccc(-c2nc(-c3ccc(F)cc3)c(-c3ccncc3)[nH]2)cc1 (stereo not shown) [SB203580 (p38 MAPK inhibitor)] | Transactivation
mercury | DNA binding
